Key:
Type in all cases: functional, cell-based
[1] = target: T1, ATP-dependent translocase ABCB1 (Homo sapiens, UniProt P08183); assay: TP_TRANSPORTER: inhibition of Daunorubicin transepithelial transport (basal to apical) (Daunorubicin: 0.035 uM) in MDR1-expressing LLC-PK1 cells
[2] = target: T1, ATP-dependent translocase ABCB1; assay: TP_TRANSPORTER: inhibition of Daunorubicin transepithelial transport (basal to apical), (-)-efonidipine (Daunorubicin: 0.035 uM) in MDR1-expressing LLC-PK1 cells
[3] = target: T1, ATP-dependent translocase ABCB1; assay: TP_TRANSPORTER: inhibition of Daunorubicin transepithelial transport (basal to apical), (+)-efonidipine (Daunorubicin: 0.035 uM) in MDR1-expressing LLC-PK1 cells

T1 sequence (P08183 whole entry): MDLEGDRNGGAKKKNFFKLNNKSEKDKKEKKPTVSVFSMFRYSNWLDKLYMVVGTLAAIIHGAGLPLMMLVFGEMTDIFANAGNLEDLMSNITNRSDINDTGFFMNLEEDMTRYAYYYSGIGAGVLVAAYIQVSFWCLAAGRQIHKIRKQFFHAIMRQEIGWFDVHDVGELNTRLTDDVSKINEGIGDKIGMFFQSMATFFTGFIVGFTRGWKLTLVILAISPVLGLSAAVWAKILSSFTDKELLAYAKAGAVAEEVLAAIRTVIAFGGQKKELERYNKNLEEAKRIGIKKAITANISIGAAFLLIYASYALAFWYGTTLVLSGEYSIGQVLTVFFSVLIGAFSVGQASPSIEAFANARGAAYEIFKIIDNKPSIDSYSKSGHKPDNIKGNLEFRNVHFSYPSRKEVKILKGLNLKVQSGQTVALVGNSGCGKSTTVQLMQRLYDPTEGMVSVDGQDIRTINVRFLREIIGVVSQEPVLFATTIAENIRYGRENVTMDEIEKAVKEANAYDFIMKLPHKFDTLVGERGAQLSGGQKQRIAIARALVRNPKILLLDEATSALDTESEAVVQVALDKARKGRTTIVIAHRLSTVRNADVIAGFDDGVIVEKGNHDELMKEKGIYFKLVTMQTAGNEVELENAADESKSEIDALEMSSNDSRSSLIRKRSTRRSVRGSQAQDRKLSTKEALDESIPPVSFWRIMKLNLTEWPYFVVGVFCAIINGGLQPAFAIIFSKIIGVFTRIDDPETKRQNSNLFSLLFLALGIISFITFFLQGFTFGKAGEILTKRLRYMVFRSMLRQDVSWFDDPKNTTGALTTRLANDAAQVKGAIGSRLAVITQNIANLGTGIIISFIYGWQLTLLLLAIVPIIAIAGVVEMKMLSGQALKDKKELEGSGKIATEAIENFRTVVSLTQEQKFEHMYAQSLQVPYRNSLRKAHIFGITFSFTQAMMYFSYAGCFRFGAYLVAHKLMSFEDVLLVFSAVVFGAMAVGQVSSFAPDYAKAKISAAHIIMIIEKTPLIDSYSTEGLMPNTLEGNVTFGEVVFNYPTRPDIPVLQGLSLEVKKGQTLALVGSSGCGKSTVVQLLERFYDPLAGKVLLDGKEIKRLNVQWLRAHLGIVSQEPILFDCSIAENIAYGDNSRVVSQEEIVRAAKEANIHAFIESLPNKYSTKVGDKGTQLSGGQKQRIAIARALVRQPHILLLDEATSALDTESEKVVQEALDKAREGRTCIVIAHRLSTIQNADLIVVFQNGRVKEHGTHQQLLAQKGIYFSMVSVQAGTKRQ

Compound | IC50 [1] [µM] | IC50 [2] [µM] | IC50 [3] [µM]
CCOC(=O)C1=C(COCCN)NC(C)=C(C(=O)OC)C1c1ccccc1Cl (stereo unspecified) [AMLODIPINE] | 22 |  | 
COC(=O)C1=C(C)NC(C)=C(C(=O)O[C@H]2CCN(Cc3ccccc3)C2)[C@H]1c1cccc([N+](=O)[O-])c1 [BARNIDIPINE] | 8.6 |  | 
COC(=O)C1=C(C)NC(C)=C(C(=O)O[C@@H]2CCCN(Cc3ccccc3)C2)C1c1cccc([N+](=O)[O-])c1 (stereo partly specified) | 9.5 |  | 
CC1=C(C(=O)OCCN(Cc2ccccc2)c2ccccc2)C(c2cccc([N+](=O)[O-])c2)C(P2(=O)OCC(C)(C)CO2)=C(C)N1 (stereo unspecified) [EFONIDIPINE] |  | 17.3 | 20.6
COC(=O)C1=C(C)NC(C)=C(C(=O)OCCN2CCN(C(c3ccccc3)c3ccccc3)CC2)C1c1cccc([N+](=O)[O-])c1 (stereo unspecified) [MANIDIPINE 6300] | 4.6 |  | 
